Inhibition data for 13 molecules are collected here from patent EP4578856A1, “HETEROCYCLIC COMPOUND” (Ubience Inc., priority 2022, dated 2024).

In the assay the target is ROCK2 protein (Homo sapiens, UniProt O75116). Description: Degradation inducing activity of ROCK2 protein in HUVEC cells, Western blotting (Simple Western JESS). The settings on record: HUVEC, 24 h; for inhibition at 1 µM: degradation rate at 1 µM; for inhibition at 10 µM: degradation rate at 10 µM. Further details: endogenous in cells; host or cells: HUVEC (ATCC CRL-1730). It is filed as cell-based. On the procedure: In vitro degradation inducing activity of ROCK2 protein of compounds of Examples was evaluated by Western Blotting (WB).
Chain of ROCK2 protein (O75116 whole entry): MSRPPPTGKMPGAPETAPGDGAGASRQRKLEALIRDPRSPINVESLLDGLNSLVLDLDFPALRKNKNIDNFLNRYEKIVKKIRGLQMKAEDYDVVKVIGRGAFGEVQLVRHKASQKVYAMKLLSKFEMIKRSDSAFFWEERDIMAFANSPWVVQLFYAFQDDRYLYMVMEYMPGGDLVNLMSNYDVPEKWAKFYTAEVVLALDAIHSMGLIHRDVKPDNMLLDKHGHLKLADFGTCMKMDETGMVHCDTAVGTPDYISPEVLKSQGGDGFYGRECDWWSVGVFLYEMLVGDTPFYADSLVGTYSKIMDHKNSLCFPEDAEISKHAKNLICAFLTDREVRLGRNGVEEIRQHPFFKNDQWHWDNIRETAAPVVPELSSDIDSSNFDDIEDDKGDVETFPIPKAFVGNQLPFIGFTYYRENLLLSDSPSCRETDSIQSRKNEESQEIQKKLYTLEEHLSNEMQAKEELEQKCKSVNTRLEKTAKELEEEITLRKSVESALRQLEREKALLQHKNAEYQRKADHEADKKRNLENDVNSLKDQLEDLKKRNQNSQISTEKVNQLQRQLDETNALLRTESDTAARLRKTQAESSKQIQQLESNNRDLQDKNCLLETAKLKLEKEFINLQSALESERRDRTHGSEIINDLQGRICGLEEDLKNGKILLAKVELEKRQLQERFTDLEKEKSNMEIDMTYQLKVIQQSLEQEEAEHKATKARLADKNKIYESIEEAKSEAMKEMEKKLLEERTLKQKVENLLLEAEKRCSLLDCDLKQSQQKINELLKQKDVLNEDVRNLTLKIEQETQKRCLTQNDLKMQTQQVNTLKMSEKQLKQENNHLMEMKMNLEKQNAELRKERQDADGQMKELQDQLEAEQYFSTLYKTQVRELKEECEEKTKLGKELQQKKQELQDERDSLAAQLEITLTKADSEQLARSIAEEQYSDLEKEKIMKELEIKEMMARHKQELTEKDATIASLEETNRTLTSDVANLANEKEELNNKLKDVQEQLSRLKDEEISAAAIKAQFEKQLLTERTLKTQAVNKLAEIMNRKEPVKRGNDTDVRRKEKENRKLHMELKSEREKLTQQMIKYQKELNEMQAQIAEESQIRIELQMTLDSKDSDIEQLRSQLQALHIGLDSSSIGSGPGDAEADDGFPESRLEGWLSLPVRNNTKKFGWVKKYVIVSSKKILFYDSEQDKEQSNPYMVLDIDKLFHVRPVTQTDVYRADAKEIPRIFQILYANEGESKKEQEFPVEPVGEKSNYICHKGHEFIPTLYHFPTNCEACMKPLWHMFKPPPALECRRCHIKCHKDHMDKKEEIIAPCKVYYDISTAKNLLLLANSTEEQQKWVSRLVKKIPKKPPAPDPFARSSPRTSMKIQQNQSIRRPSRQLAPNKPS
By a test compound, 10 mM DMSO solution was prepared, which was used as a 10 µM test compound solution. Further, the solution was diluted 10-fold with DMSO to prepare a 1 mM solution, which was used as a 1 µM test compound solution.
HUVEC cells (ATCC: CRL-1730, Lot: 70041472) were cultured in F-12K medium supplemented with 10% FBS, 0.1 mg/mL heparin, […] Endothelial Cell Growth Supplement (ECGS, Corning), and 1% Penicillin/Streptomycin. The HUVEC cells seeded in a 24 well plate at 50,000 cells/well/1 mL were cultured for 24 hours, and then 1 µL of DMSO or a test compound solution was added thereto and treatment was performed for 24 hours. Cells were harvested and lysed for 20 minutes on ice using lysis buffer (Cell Signaling Technology, Cat#9803) supplemented with protease inhibitor cocktail (Sigma, Cat#P8340; Roche, Cat#P11873580001), and phosphatase inhibitor cocktail (Sigma, Cat#P5726, P0044). The lysate was sonicated (15 seconds, amplitude 30%, 1 cycle) and then centrifuged at 12500 rpm for 15 minutes at 4°C. The protein concentration was determined by BCA assay kit (Thermo Fisher Scientific, Cat#23225).
The western blotting was performed using Simple Western JESS (protein simple). A cell lysis sample (protein amount; about 1.06 µg) was loaded on a plate of Simple Western JESS, and the expression level of ROCK2 protein was detected using a 12-230 kDa Wes Separation Module (Protein simple, Cat#SM-WO04), an Anti-Rabbit Detection Module for Wes (Protein simple, Cat#DM-001), and a Total Protein Detection Module for Wes (Protein simple, Cat#DM-TP01). As the primary antibody, a material obtained by diluting ROCK2 (D1B1) Rabbit mAb (Cell Signaling Technology, Cat#9029) at 1:10 was used, and as the secondary antibody, a material obtained by diluting HRP-labeled anti-rabbit IgG antibody (Cell Signaling Technology, Cat#7074S) at 1:100 was used. The expression level of the target protein was standardized using the total protein amount loaded as a reference. The standardized expression level data of the control (DMSO) was taken as 100%, and the degradation rate (%) was calculated from the average standardized expression level data of the test compound. All analysis steps, such as data detection and analysis, are fully automated.
With respect to the ROCK2 protein degradation rate of the test compound, the protein degradation rates (%) at the evaluation concentrations were set to A ≥ 75%, 75% > B ≥ 50%, 50% > C ≥ 25%, and D < 25%, and are shown in Table 7.
A general note: Immunoblotting shows a protein as a band on a membrane.

By inhibition is commonly meant the drop in the measured response relative to a control, in per cent. Lower therefore signals a weak effect. As to `C[C@@H]1CN(CC(=O)N2CC(C)(C)c3ncc(Cc4ccc(F)cc4)cc32)[C@@H](CN(C)CCOCCOCCOCCNC[C@@H](C(=O)Nc2ccc3cnccc3c2)c2ccccc2)CN1` [Example 17, (S)-1-((2R,5R)-1-(2-(6-(4-Fluorobenzyl)-3,3-dimethyl-2,3-dihydro-1H-pyrrolo[3,2-b]pyridin-1-yl)-2-oxoethyl)-5-methylpiperazin-2-yl)-N-(isoquinolin-6-yl)-2-methyl-16-phenyl-5,8,11-trioxa-2,14-diazaheptadecan-17-amide], the inhibition at 1 µM was in the range of 25 to 50% and the inhibition at 10 µM is ≥ 75%.
For `C[C@@H]1CN(CC(=O)N2CC(C)(C)c3ncc(Cc4ccc(F)cc4)cc32)[C@@H](CN(C)CCOCCOCCOCCOCCNC[C@@H](C(=O)Nc2ccc3cnccc3c2)c2ccccc2)CN1` [Example 18, (S)-1-((2R,5R)-1-(2-(6-(4-Fluorobenzyl)-3,3-dimethyl-2,3-dihydro-1H-pyrrolo[3,2-b]pyridin-1-yl)-2-oxoethyl)-5-methylpiperazin-2-yl)-N-(isoquinolin-6-yl)-2-methyl-19-phenyl-5,8,11,14-tetraoxa-2,17-diazaicosan-20-amide], in that order: ≥ 75% and ≥ 75%.
Turning to `C[C@@H]1CN(CC(=O)N2CC(C)(C)c3ncc(Cc4ccc(F)cc4)cc32)[C@@H](CN(C)CCOCCOCCOCCOCCOCCNC[C@@H](C(=O)Nc2ccc3cnccc3c2)c2ccccc2)CN1` [Example 19, (S)-1-((2R,5R)-1-(2-(6-(4-Fluorobenzyl)-3,3-dimethyl-2,3-dihydro-1H-pyrrolo[3,2-b]pyridin-1-yl)-2-oxoethyl)-5-methylpiperazin-2-yl)-N-(isoquinolin-6-yl)-2-methyl-22-phenyl-5,8,11,14,17-pentaoxa-2,20-diazatricosan-23-amide], the inhibition at 1 µM lay in the range of 25 to 50% and the inhibition at 10 µM is ≥ 75%.
In the case of `C[C@@H]1CN(CC(=O)N2CC(C)(C)c3ncc(Cc4ccc(F)cc4)cc32)[C@@H](CN(C)CCOCCOCCOCCOCCOCCOCCNC[C@@H](C(=O)Nc2ccc3cnccc3c2)c2ccccc2)CN1` [Example 20, (S)-1-((2R,5R)-1-(2-(6-(4-Fluorobenzyl)-3,3-dimethyl-2,3-dihydro-1H-pyrrolo[3,2-b]pyridin-1-yl)-2-oxoethyl)-5-methylpiperazin-2-yl)-N-(isoquinolin-6-yl)-2-methyl-25-phenyl-5,8,11,14,17,20-hexaoxa-2,23-diazahexacosan-26-amide], the inhibition at 1 µM was 50 to 75% and the inhibition at 10 µM is ≥ 75%.
In the same order, the values of `C[C@@H]1CN(CC(=O)N2CC(C)(C)c3ncc(Cc4ccc(F)cc4)cc32)[C@@H](CN(C)CCOCCOCCOCCOCCOCCOCCOCCNC[C@@H](C(=O)Nc2ccc3cnccc3c2)c2ccccc2)CN1` [Example 21, (S)-1-((2R,5R)-1-(2-(6-(4-Fluorobenzyl)-3,3-dimethyl-2,3-dihydro-1H-pyrrolo[3,2-b]pyridin-1-yl)-2-oxoethyl)-5-methylpiperazin-2-yl)-N-(isoquinolin-6-yl)-2-methyl-28-phenyl-5,8,11,14,17,20,23-heptaoxa-2,26-diazanonacosan-29-amide] are 25 to 50% and 50 to 75%.
As for `COC[C@H]1CN[C@H](C)CN1CC(=O)N1CC(C)(C)c2nc(CN(C)CCOCCN[C@H](C)c3ccc(C(=O)Nc4ccncc4)cc3)c(Cc3ccc(F)cc3)cc21` [Example 22, 4-((R)-1-((2-(2-(((6-(4-Fluorobenzyl)-1-(2-((2R,5R)-2-(methoxymethyl)-5-methylpiperazin-1-yl)acetyl)-3,3-dimethyl-2,3-dihydro-1H-pyrrolo[3,2-b]pyridin-5-yl)methyl)(methyl)amino)ethoxy)ethyl)amino)ethyl)-N-(pyridin-4-yl)benzamide], the inhibition at 1 µM was < 25% and the inhibition at 10 µM is ≥ 75%.
In the same order, the values of `COC[C@H]1CN[C@H](C)CN1CC(=O)N1CC(C)(C)c2nc(CN(C)CCOCCOCCN[C@H](C)c3ccc(C(=O)Nc4ccncc4)cc3)c(Cc3ccc(F)cc3)cc21` [Example 23, 4-((R)-1-(6-(4-Fluorobenzyl)-1-(2-((2R,5R)-2-(methoxymethyl)-5-methylpiperazin-1-yl)acetyl)-3,3-dimethyl-2,3-dihydro-1H-pyrrolo[3,2-b]pyridin-5-yl)-2-methyl-5,8-dioxa-2,11-diazatridecan-12-yl)-N-(pyridin-4-yl)benzamide] are ≥ 75% and ≥ 75%.
In the same order, the values of `COC[C@H]1CN[C@H](C)CN1CC(=O)N1CC(C)(C)c2nc(CN(C)CCOCCOCCOCCOCCN[C@H](C)c3ccc(C(=O)Nc4ccncc4)cc3)c(Cc3ccc(F)cc3)cc21` [Example 25, 4-((R)-1-(6-(4-Fluorobenzyl)-1-(2-((2R,5R)-2-(methoxymethyl)-5-methylpiperazin-1-yl)acetyl)-3,3-dimethyl-2,3-dihydro-1H-pyrrolo[3,2-b]pyridin-5-yl)-2-methyl-5,8,11,14-tetraoxa-2,17-diazanonadecan-18-yl)-N-(pyridin-4-yl)benzamide] are ≥ 75% and ≥ 75%.
As for `COC[C@H]1CN[C@H](C)CN1CC(=O)N1CC(C)(C)c2nc(CN(C)CCOCCOCCOCCOCCOCCN[C@H](C)c3ccc(C(=O)Nc4ccncc4)cc3)c(Cc3ccc(F)cc3)cc21` [Example 26, 4-((R)-1-(6-(4-Fluorobenzyl)-1-(2-((2R,5R)-2-(methoxymethyl)-5-methylpiperazin-1-yl)acetyl)-3,3-dimethyl-2,3-dihydro-1H-pyrrolo[3,2-b]pyridin-5-yl)-2-methyl-5,8,11,14,17-pentaoxa-2,20-diazadocosan-21-yl)-N-(pyridin-4-yl)benzamide], the inhibition at 1 µM lay in the range of 50 to 75% and the inhibition at 10 µM is ≥ 75%.
For `COC[C@H]1CN[C@H](C)CN1CC(=O)N1CC(C)(C)c2nc(CN(C)CCOCCOCCOCCOCCOCCOCCN[C@H](C)c3ccc(C(=O)Nc4ccncc4)cc3)c(Cc3ccc(F)cc3)cc21` [Example 27, 4-((R)-1-(6-(4-Fluorobenzyl)-1-(2-((2R,5R)-2-(methoxymethyl)-5-methylpiperazin-1-yl)acetyl)-3,3-dimethyl-2,3-dihydro-1H-pyrrolo[3,2-b]pyridin-5-yl)-2-methyl-5,8,11,14,17,20-hexaoxa-2,23-diazapentacosan-24-yl)-N-(pyridin-4-yl)benzamide], in that order: < 25% and < 25%.
For `COC[C@H]1CN[C@H](C)CN1CC(=O)N1CC(C)(C)c2nc(CN(C)CCOCCOCCOCCOCCOCCOCCOCCN[C@H](C)c3ccc(C(=O)Nc4ccncc4)cc3)c(Cc3ccc(F)cc3)cc21` [Example 28, 4-((R)-1-(6-(4-Fluorobenzyl)-1-(2-((2R,5R)-2-(methoxymethyl)-5-methylpiperazin-1-yl)acetyl)-3,3-dimethyl-2,3-dihydro-1H-pyrrolo[3,2-b]pyridin-5-yl)-2-methyl-5,8,11,14,17,20,23-heptaoxa-2,26-diazaoctacosan-27-yl)-N-(pyridin-4-yl)benzamide], in that order: 50 to 75% and < 25%.
For `COC[C@H]1CN[C@H](C)CN1CC(=O)N1CC(C)(C)c2nc(CN(C)CCOCCN[C@H](Cc3cccc(F)c3)C(=O)Nc3ccc(-c4ccncc4)cc3)c(Cc3ccc(F)cc3)cc21` [Example 29, (R)-2-((2-(2-(((6-(4-Fluorobenzyl)-1-(2-((2R,5R)-2-(methoxymethyl)-5-methylpiperazin-1-yl)acetyl)-3,3-dimethyl-2,3-dihydro-1H-pyrrolo[3,2-b]pyridin-5-yl)methyl)(methyl)amino)ethoxy)ethyl)amino)-3-(3-fluorophenyl)-N-(4-(pyridin-4-yl)phenyl)propanamide], in that order: 50 to 75% and ≥ 75%.
`COC[C@H]1CN[C@H](C)CN1CC(=O)N1CC(C)(C)c2nc(CN(C)CCOCCOCCN[C@H](Cc3cccc(F)c3)C(=O)Nc3ccc(-c4ccncc4)cc3)c(Cc3ccc(F)cc3)cc21` [Example 30, (R)-12-(3-Fluorobenzyl)-1-(6-(4-fluorobenzyl)-1-(2-((2R,5R)-2-(methoxymethyl)-5-methylpiperazin-1-yl)acetyl)-3,3-dimethyl-2,3-dihydro-1H-pyrrolo[3,2-b]pyridin-5-yl)-2-methyl-N-(4-(pyridin-4-yl)phenyl)-5,8-dioxa-2,11-diazatridecan-13-amide]: the inhibition at 1 µM is < 25% and the inhibition at 10 µM is < 25%.
